Measurements taken from patent US20220362396A1, “AMINO-PYRAZINECARBOXAMIDE COMPOUNDS, CONJUGATES, AND USES THEREOF” (Silverback Therapeutics, Inc., priority 2018, published 2022).

Columns and labels:
[1] = system: TGFβ/SMAD Signaling Pathway SBE reporter cell line; assay: TGFβ reporter assay, in vitro small molecule screening (luciferase); assay type: cell-based; details: TGFβ stimulation, luminescence
Experimental: TGFβ/SMAD Signaling Pathway SBE reporter cell line was obtained from BPS Bioscience. Cells were passed, expanded, and stored in liquid nitrogen as per the supplier's instructions with the exception that growth media is changed to DMEM-C with Geneticin (DMEM supplemented with 10% fetal bovine serum, 1×NEAA, 1 mM Pyruvate, 2 mM glutamine, 50 μg/mL penicillin, 50 U/mL streptomycin and 400 μg/mL of Geneticin). The assay media was MEM supplemented with 0.5% fetal bovine serum, 1×NEAA, 1 mM Pyruvate, 50 μg/mL penicillin and 50 U/mL streptomycin.
Test samples (at desired concentrations diluted in assay media) were added to a 96-well assay plate, 20 μL per well. Reporter cells were harvested from the tissue culture flasks by incubation in small quantity of PBS at 37° C. for two minutes after the media in the flask is removed and cells rinsed with PBS. Cells were counted and diluted in the assay media at approximately 0.5×10^6 cells/mL and then 80 μL/well of cells were added to the assay plate containing the 20 μL/well of test samples (or media only), and incubated for approximately 5-6 hours at 37° C. in a 5% CO2 humidified incubator. After that time, 15 μL of TGFβ diluted to 12 ng/mL in the assay media was added to the plate. Controls included TGFβ titration (from 50 to 0 ng/mL) without inhibitors, and media only (without cells, inhibitor or TGFβ). Plates were incubated at 37° C. in a 5% CO2 humidified incubator for 18 h. Luciferase substrate solution is subsequently added at 100 μL per well, incubated in the dark at room temperature for 15 min, and luminescence is measured using a luminometer. EC50 values and curve fits were obtained using Prism (GraphPad Software).

TGFBR2 = target: T1, TGFBR2 (Homo sapiens, UniProt P37173); assay: TGFBR2 RBC assay (enzyme inhibition assay, Reaction Biology Corp.); assay type: biochemical
T1 construct: purchased Reaction Biology Corp
Experimental: Compounds of the disclosure were also assayed by Reaction Biology Corp. using the TGFBR2 RBC assay (enzyme inhibition assay). […] NT refers to not tested.

T1 sequence (P37173 23-567): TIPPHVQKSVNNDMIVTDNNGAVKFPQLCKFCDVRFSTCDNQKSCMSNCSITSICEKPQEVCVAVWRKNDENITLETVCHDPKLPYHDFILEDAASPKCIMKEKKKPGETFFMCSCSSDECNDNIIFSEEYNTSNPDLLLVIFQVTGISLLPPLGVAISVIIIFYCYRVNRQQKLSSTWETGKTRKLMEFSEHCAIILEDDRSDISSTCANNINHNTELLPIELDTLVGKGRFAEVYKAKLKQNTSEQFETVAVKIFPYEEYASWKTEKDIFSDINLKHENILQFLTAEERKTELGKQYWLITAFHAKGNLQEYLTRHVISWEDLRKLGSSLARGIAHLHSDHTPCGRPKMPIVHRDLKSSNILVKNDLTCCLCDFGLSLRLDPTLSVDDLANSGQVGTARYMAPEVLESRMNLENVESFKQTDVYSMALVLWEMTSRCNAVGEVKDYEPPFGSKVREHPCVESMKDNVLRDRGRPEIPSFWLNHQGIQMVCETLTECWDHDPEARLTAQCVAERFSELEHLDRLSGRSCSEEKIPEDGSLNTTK

| Compound | EC50 [1] [nM] | IC50 (TGFBR2) [nM] |
| --- | --- | --- |
| Nc1nc(-c2ccc(CCC(=O)N3CCN(C(=O)OCc4ccccc4)CC3)cc2)cnc1C(=O)Nc1cnccc1N1CCOCC1 [Compound 86] | 100 to 1000 | < 50 |
| Nc1ncc(-c2ccc(CN3CCNCC3=O)cc2)nc1C(=O)Nc1cnccc1N1CCOCC1 [Compound 87] | 50 to 100 | < 50 |
| Nc1ncc(-c2ccc(CCC(=O)N3CCNCC3)cc2)nc1C(=O)Nc1cnccc1N1CCOCC1 [Compound 88] | 50 to 100 | < 50 |
| CC(C)(C)OC(=O)N1CCN(Cc2ccc(-c3cnc(N)c(C(=O)Nc4cnccc4N4CCOCC4)n3)cc2)CC1 [Compound 89] | 50 to 100 | < 50 |
| Nc1ncc(-c2ccc(CC(=O)N3CCN(C(=O)OCc4ccccc4)CC3)cc2)nc1C(=O)Nc1cnccc1N1CCOCC1 [Compound 90] | 50 to 100 | < 50 |
| Nc1ncc(-c2ccc(CN3CCNCC3)cc2)nc1C(=O)Nc1cnccc1N1CCOCC1 [Compound 91] | 50 to 100 | 50 to 100 |
| Nc1ncc(-c2ccc(CC(=O)N3CCNCC3)cc2)nc1C(=O)Nc1cnccc1N1CCOCC1 [Compound 92] | 100 to 1000 | < 50 |
| NCCc1ccc(-c2cnc(N)c(C(=O)Nc3cnccc3CN3CCCC3)n2)cc1 [Compound 93] | 100 to 1000 | 100 to 1000 |
| Nc1ncc(-c2ccc(CC(=O)NCCNC(=O)OCc3ccccc3)cc2)nc1C(=O)Nc1cnccc1N1CCOCC1 [Compound 94] | 100 to 1000 | < 50 |
| Nc1ncc(-c2ccc(CCNC(=O)OCc3ccccc3)cc2)nc1C(=O)Nc1cnccc1N1CC2(COC2)C1 [Compound 95] | > 1000 | > 1000 |
| COC1CN(c2ccncc2NC(=O)c2nc(-c3ccc(CCNC(=O)OCc4ccccc4)cc3)cnc2N)C1 [Compound 96] | > 1000 | > 1000 |
| COCCCNc1ccncc1NC(=O)c1nc(-c2ccc(CCN)cc2)cnc1N [Compound 97] | > 1000 | > 1000 |
| COC1CN(c2ccncc2NC(=O)c2nc(-c3ccc(CCN)cc3)cnc2N)C1 [Compound 98] | > 1000 | > 1000 |
| COCCN(C)c1ccncc1NC(=O)c1nc(-c2ccc(CCNC(=O)OCc3ccccc3)cc2)cnc1N [Compound 101] | 100 to 1000 | 50 to 100 |
| COCCN(C)c1ccncc1NC(=O)c1nc(-c2ccc(CCN)cc2)cnc1N [Compound 102] | 100 to 1000 | 100 to 1000 |
| COCCCN(C)c1ccncc1NC(=O)c1nc(-c2ccc(CCN)cc2)cnc1N [Compound 103] | 100 to 1000 | < 50 |
| NCCc1ccc(-c2cnc(N)c(C(=O)Nc3cnccc3NCC(N)=O)n2)cc1 [Compound 104] | > 1000 | > 1000 |
| C[C@H](NC(=O)OCC1c2ccccc2-c2ccccc21)C(=O)NCc1ccc(-c2cnc(N)c(C(=O)Nc3cnccc3N3CCOCC3)n2)cc1 [Compound 105] | 100 to 1000 | 100 to 1000 |
| C[C@H](N)C(=O)NCc1ccc(-c2cnc(N)c(C(=O)Nc3cnccc3N3CCOCC3)n2)cc1 [Compound 106] | 100 to 1000 | 50 to 100 |
| CC(C)[C@H](NC(=O)OC(C)(C)C)C(=O)N[C@@H](C)C(=O)NCc1ccc(-c2cnc(N)c(C(=O)Nc3cnccc3N3CCOCC3)n2)cc1 [Compound 107] | 100 to 1000 | < 50 |
| CC(C)[C@H](N)C(=O)N[C@@H](C)C(=O)NCc1ccc(-c2cnc(N)c(C(=O)Nc3cnccc3N3CCOCC3)n2)cc1 [Compound 108] | 50 to 100 | 50 to 100 |
| CC(C)(C)OC(=O)N1CCC[C@H]1C(=O)NCc1ccc(-c2cnc(N)c(C(=O)Nc3cnccc3N3CCOCC3)n2)cc1 [Compound 109] | 100 to 1000 | < 50 |
| Nc1ncc(-c2ccc(CNC(=O)[C@@H]3CCCN3)cc2)nc1C(=O)Nc1cnccc1N1CCOCC1 [Compound 110] | 100 to 1000 | < 50 |

| Compound | EC50 [1] [nM] | IC50 (TGFBR2) [nM] |
| --- | --- | --- |
| CC(C)[C@H](NC(=O)OC(C)(C)C)C(=O)N1CCC[C@H]1C(=O)NCc1ccc(-c2cnc(N)c(C(=O)Nc3cnccc3N3CCOCC3)n2)cc1 [Compound 111] | 100 to 1000 | < 50 |
| CC(C)[C@H](N)C(=O)N1CCC[C@H]1C(=O)NCc1ccc(-c2cnc(N)c(C(=O)Nc3cnccc3N3CCOCC3)n2)cc1 [Compound 112] | 50 to 100 | < 50 |
| CN(CC#N)c1ccncc1NC(=O)c1nc(-c2ccc(CCNC(=O)OCc3ccccc3)cc2)cnc1N [Compound 113] | > 1000 | > 1000 |
| Nc1ncc(N2CCC3(CCNCC3)C2)nc1C(=O)Nc1cnccc1N1CCOCC1 [Compound 114] | > 1000 | > 1000 |
| CC(C)(C)OC(=O)N1CCN(c2cnc(N)c(C(=O)Nc3cnccc3N3CCOCC3)n2)CC1 [Compound 115] | > 1000 | > 1000 |
| Nc1ncc(-c2ccc(CCNC(=O)OCc3ccccc3)cn2)nc1C(=O)Nc1cnccc1N1CCOCC1 [Compound 116] | 100 to 1000 | 100 to 1000 |
| NCCc1ccc(-c2cnc(N)c(C(=O)Nc3cnccc3N3CCOCC3)n2)nc1 [Compound 117] | > 1000 | 100 to 1000 |
| Nc1ncc(N2CCNCC2)nc1C(=O)Nc1cnccc1N1CCOCC1 [Compound 118] | > 1000 | > 1000 |
| Nc1ncc(-c2ccc(CCNC(=O)OCc3ccccc3)cc2)nc1C(=O)Nc1cnccc1-n1ccnn1 [Compound 120] | > 1000 | < 50 |
| Nc1ncc(-c2ccc(CCNC(=O)OCc3ccccc3)cc2)nc1C(=O)Nc1cnccc1-c1ccccc1 [Compound 121] | 100 to 1000 | < 50 |
| CC(C)(C)OC(=O)NC1CCN(c2cnc(N)c(C(=O)Nc3cnccc3N3CCOCC3)n2)CC1 [Compound 122] | > 1000 | > 1000 |
| Nc1ncc(-c2ccc(CCNC(=O)OCc3ccccc3)nc2)nc1C(=O)Nc1cnccc1N1CCOCC1 [Compound 124] | 100 to 1000 | 100 to 1000 |
| NCCc1ccc(-c2cnc(N)c(C(=O)Nc3cnccc3N3CCOCC3)n2)cn1 [Compound 125] | > 1000 | 100 to 1000 |
| Nc1ncc(-c2ccc(CCNC(=O)OCc3ccccc3)cc2)nc1C(=O)Nc1cnc2ccccc2c1N1CCOCC1 [Compound 126] | 100 to 1000 | > 1000 |
| NCCc1ccc(-c2cnc(N)c(C(=O)Nc3cnccc3-c3cccnc3)n2)cc1 [Compound 127] | 100 to 1000 | < 50 |
| Nc1ncc(-c2ccc(CCNC(=O)OCc3ccccc3)cc2)nc1C(=O)Nc1cnccc1-c1cccnc1 [Compound 128] | 100 to 1000 | < 50 |
| NCCc1ccc(-c2cnc(N)c(C(=O)Nc3cnccc3-c3ccncc3)n2)cc1 [Compound 129] | 100 to 1000 | 50 to 100 |
| NCCc1ccc(-c2cnc(N)c(C(=O)Nc3cnc4ccccc4c3N3CCOCC3)n2)cc1 [Compound 130] | > 1000 | > 1000 |
| NCCc1ccc(-c2cnc(N)c(C(=O)Nc3c(N4CCOCC4)ccnc3N)n2)cc1 [Compound 131] | > 1000 | > 1000 |
| NCCc1ccc(-c2cnc(N)c(C(=O)Nc3cnccc3-c3ccccn3)n2)cc1 [Compound 132] | 100 to 1000 | < 50 |
| Nc1ncc(-c2ccc(CCNC(=O)OCc3ccccc3)cc2)nc1C(=O)Nc1cnccc1-c1ccccn1 [Compound 133] | > 1000 | < 50 |
| NCCc1ccc(-c2cnc(N)c(C(=O)Nc3cnc4[nH]ccc4c3N3CCOCC3)n2)cc1 [Compound 134] | 100 to 1000 | < 50 |
